Measurements taken from ChEMBL document CHEMBL1909294, “Translating clinical findings into knowledge in drug safety evaluation--drug induced liver injury prediction system (DILIps)” (PLoS Comput Biol, 2011).

Columns and labels:
Hepatotoxicity [1] = system: Hepatotoxicity;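 on HepSE elevated liver function tests: hepatic side effect score for raised liver function tests, as recorded in the DILIps training set used for predicting drug-induced liver injury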;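 on HepSE hepatitis: Hepatitis-related hepatic side effect score taken from the training data of DILIps, a prediction system for drug-induced liver injury; call rule not given here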;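 on HepSE hepatomegaly: hepatic side effect score for hepatomegaly, taken from the training set of the DILIps drug-induced liver injury prediction system; call rule not given here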;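 on HepSE jaundice: Jaundice-related hepatic side-effect score drawn from the training data of the DILIps (drug-induced liver injury prediction system); call rule not given here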;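 on HepSE liver fatty: hepatic side effect score for fatty liver, taken from the DILIps training set for predicting drug-induced liver injury; call rule not given here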;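 on HepSE liver function tests abnormal: hepatic side effect score taken from the DILIps (drug-induced liver injury prediction system) training data, here covering abnormal liver function test findings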
Hepatotoxicity [2] = system: Hepatotoxicity; remark: listed apart in the source;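 on HepSE elevated liver function tests: hepatic side effect score for raised liver function tests, as recorded in the DILIps training set used for predicting drug-induced liver injury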;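 on HepSE hepatitis: Hepatitis-related hepatic side effect score taken from the training data of DILIps, a prediction system for drug-induced liver injury; call rule not given here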;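 on HepSE hepatomegaly: hepatic side effect score for hepatomegaly, taken from the training set of the DILIps drug-induced liver injury prediction system; call rule not given here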;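 on HepSE jaundice: Jaundice-related hepatic side-effect score drawn from the training data of the DILIps (drug-induced liver injury prediction system); call rule not given here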;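 on HepSE liver fatty: hepatic side effect score for fatty liver, taken from the DILIps training set for predicting drug-induced liver injury; call rule not given here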;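 on HepSE liver function tests abnormal: hepatic side effect score taken from the DILIps (drug-induced liver injury prediction system) training data, here covering abnormal liver function test findings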
Hepatotoxicity [3] = system: Hepatotoxicity; remark: listed apart in the source;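 on HepSE hepatitis: Hepatitis-related hepatic side effect score taken from the training data of DILIps, a prediction system for drug-induced liver injury; call rule not given here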;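 on HepSE hepatomegaly: hepatic side effect score for hepatomegaly, taken from the training set of the DILIps drug-induced liver injury prediction system; call rule not given here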;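 on HepSE jaundice: Jaundice-related hepatic side-effect score drawn from the training data of the DILIps (drug-induced liver injury prediction system); call rule not given here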;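 on HepSE liver fatty: hepatic side effect score for fatty liver, taken from the DILIps training set for predicting drug-induced liver injury; call rule not given here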;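 on HepSE liver function tests abnormal: hepatic side effect score taken from the DILIps (drug-induced liver injury prediction system) training data, here covering abnormal liver function test findings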
Hepatotoxicity [4] = system: Hepatotoxicity; remark: listed apart in the source;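 on HepSE hepatitis: Hepatitis-related hepatic side effect score taken from the training data of DILIps, a prediction system for drug-induced liver injury; call rule not given here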;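 on HepSE hepatomegaly: hepatic side effect score for hepatomegaly, taken from the training set of the DILIps drug-induced liver injury prediction system; call rule not given here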;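 on HepSE jaundice: Jaundice-related hepatic side-effect score drawn from the training data of the DILIps (drug-induced liver injury prediction system); call rule not given here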;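 on HepSE liver fatty: hepatic side effect score for fatty liver, taken from the DILIps training set for predicting drug-induced liver injury; call rule not given here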;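 on HepSE liver function tests abnormal: hepatic side effect score taken from the DILIps (drug-induced liver injury prediction system) training data, here covering abnormal liver function test findings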
Hepatotoxicity [5] = system: Hepatotoxicity; remark: listed apart in the source
Hepatotoxicity [6] = system: Hepatotoxicity; remark: listed apart in the source
Hepatotoxicity [7] = system: Hepatotoxicity; remark: listed apart in the source
Hepatotoxicity [8] = system: Hepatotoxicity; remark: listed apart in the source
Hepatotoxicity [9] = system: Hepatotoxicity; remark: listed apart in the source
Hepatotoxicity [10] = system: Hepatotoxicity; remark: listed apart in the source
Hepatotoxicity [11] = system: Hepatotoxicity; remark: listed apart in the source
Hepatotoxicity [12] = system: Hepatotoxicity; remark: listed apart in the source
Hepatotoxicity [13] = system: Hepatotoxicity; remark: listed apart in the source
Hepatotoxicity [14] = system: Hepatotoxicity; remark: listed apart in the source

Compound | HepSE_hepatitis (Hepatotoxicity [1]) | HepSE_liver function tests abnormal (Hepatotoxicity [2]) | HepSE_hepatomegaly (Hepatotoxicity [3]) | HepSE_liver fatty (Hepatotoxicity [4]) | HepSE_jaundice (Hepatotoxicity [5]) | HepSE_elevated liver function tests (Hepatotoxicity [6]) | HepSE_hepatic failure (Hepatotoxicity [7]) | HepSE_cirrhosis (Hepatotoxicity [8]) | HepSE_hepatic necrosis (Hepatotoxicity [9]) | HepSE_cholelithiasis (Hepatotoxicity [10]) | HepSE_liver disease (Hepatotoxicity [11]) | HepSE_Combined Scores (Hepatotoxicity [12]) | HepSE_bilirubinemia (Hepatotoxicity [13]) | HepSE_cholecystitis (Hepatotoxicity [14]) | also measured
c1ccc(CC2=NCCN2)cc1 [TOLAZOLINE] | 1 | 0 | 0 | 0 | 0 | 0 | 0 | 0 | 0 | 0 | 0 | 1 | 0 | 0 | 
Cc1ccc(C(=O)c2cc(O)c(O)c([N+](=O)[O-])c2)cc1 [TOLCAPONE] |  |  |  |  |  |  |  |  |  |  |  |  |  |  | HepSE_hepatitis (Hepatotoxicity [1]; Liver): 0; HepSE_liver function tests abnormal (Hepatotoxicity [2]; Liver): 0; HepSE_hepatomegaly (Hepatotoxicity [3]; Liver): 0; HepSE_liver fatty (Hepatotoxicity [4]; Liver): 0; HepSE_jaundice (Hepatotoxicity [5]; Liver): 0; HepSE_elevated liver function tests (Hepatotoxicity [6]; Liver): 0; HepSE_hepatic failure (Hepatotoxicity [7]; Liver): 0; HepSE_cirrhosis (Hepatotoxicity [8]; Liver): 0; HepSE_hepatic necrosis (Hepatotoxicity [9]; Liver): 0; HepSE_cholelithiasis (Hepatotoxicity [10]; Liver): 1; HepSE_liver disease (Hepatotoxicity [11]; Liver): 0; HepSE_Combined Scores (Hepatotoxicity [12]; Liver): 2; HepSE_bilirubinemia (Hepatotoxicity [13]; Liver): 0; HepSE_cholecystitis (Hepatotoxicity [14]; Liver): 1
Cc1ccc(C(=O)c2ccc(CC(=O)O)n2C)cc1 [TOLMETIN] | 1 | 0 | 0 | 0 | 0 | 0 | 0 | 0 | 0 | 0 | 0 | 1 | 0 | 0 | 
Cc1ccc(O)c([C@H](CCN(C(C)C)C(C)C)c2ccccc2)c1 [TOLTERODINE] | 0 | 0 | 0 | 0 | 0 | 0 | 0 | 0 | 0 | 0 | 0 | 0 | 0 | 0 | 
CC1(C)O[C@@H]2[C@@H](CO[C@@]3(COS(N)(=O)=O)OC(C)(C)O[C@@H]23)O1 [TOPIRAMATE] | 1 | 0 | 0 | 0 | 0 | 0 | 1 | 0 | 0 | 0 | 0 | 2 | 0 | 0 | 
CC[C@@]1(O)C(=O)OCc2c1cc1n(c2=O)Cc2cc3c(CN(C)C)c(O)ccc3nc2-1 [TOPOTECAN] | 0 | 0 | 0 | 0 | 0 | 0 | 0 | 0 | 0 | 0 | 0 | 1 | 1 | 0 | 
CN(C)CCOc1ccc(/C(=C(/CCCl)c2ccccc2)c2ccccc2)cc1 [TOREMIFENE] | 0 | 1 | 0 | 0 | 1 | 0 | 0 | 0 | 0 | 0 | 0 | 2 | 0 | 0 | 
Cc1cccc(Nc2ccncc2S(=O)(=O)NC(=O)NC(C)C)c1 [TORSEMIDE] | 0 | 0 | 0 | 0 | 0 | 0 | 1 | 1 | 0 | 0 | 0 | 2 | 0 | 0 | 
